Test results from US5605929A, “Methods and compositions for inhibiting 5α-reductase activity” (priority 1995, dated 1997).
Read-outs that look alike come from different tables or passages of the source. Each block holds one molecule with its values, some of them ahead of it.

Tests used:
[1] = molecular target: T1, 5α-Reductase of Rat Liver Microsomes (Rattus norvegicus, UniProt P24008); test: [3H]4-MA binding assay, rat liver microsomes (tea catechins); settings: for inhibition at 5 µM / inhibition at 10 µM / inhibition at 20 µM / inhibition at 40 µM / inhibition at 200 µM: read-out: % Inhibition of [^3 H]4-MA binding; for inhibitory activity: concentrations up to 200 μM
T1 sequence (P24008 1-259): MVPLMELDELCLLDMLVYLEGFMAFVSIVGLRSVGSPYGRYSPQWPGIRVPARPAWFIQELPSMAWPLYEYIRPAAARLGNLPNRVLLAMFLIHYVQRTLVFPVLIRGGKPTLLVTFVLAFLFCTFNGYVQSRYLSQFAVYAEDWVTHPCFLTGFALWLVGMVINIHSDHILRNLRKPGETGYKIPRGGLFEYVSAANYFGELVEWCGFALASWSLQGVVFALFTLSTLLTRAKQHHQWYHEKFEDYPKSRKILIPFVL
Method: Microsomes were prepared as described previously (Liang and Liao, 1992) from the liver of adult Sprague-Dawley female rats or Rat-1A cells expressing a specific type of human 5α-reductase. Each study was carried out in duplicate or triplicate which were usually within 10% of each other. Several studies were preformed to assure that the results shown are representative. The data presented was based on the rate of reaction.
[^3 H]4-MA binding assay were described in detail previously (Liang and Liao, 1992; Liang et al., 1983). […] The reaction was started by the addition of 25 μl of microsomes (25 μg protein). After 30-60 min incubation at 0° C., the [^3 H]4-MA bound to microsomes was collected on a Whatman GF/F glass fiber, washed and radioactivity determined (Liang and Liao, 1992).

[2] = molecular target: T1, 5α-Reductase of Rat Liver Microsomes
[3] = molecular target: T1, 5α-Reductase of Rat Liver Microsomes; test: biochemical; settings: for inhibition at 5 µM: read-out: % Inhibition of [^3 H]4-MA binding, Table 2, 5 μM
[4] = test system: hamster flank organ; test: Flank organ, castrated immature male hamsters, topical treatment; assay type: in vivo, Syrian golden hamster; settings: for Percent Inhibition / Pigmented macule Right (+T): Table 5, T 0.5 μg + fatty acid 1 mg; for Percent Inhibition / Pigmented macule Right (+T) / Pigmented macule Left: 21 days; for Pigmented macule Right (+T): T alone 49.6 ± 8.3; for Pigmented macule Left: Table 5, fatty acid 1 mg without T; for inhibition of T-induced growth of pigmented macule: hamster, in vivo
Method: One to two weeks after castration, the hair on the lower back of each animal was clipped with an electric hair clipper and then shaved weekly to expose the flank organs. The animals were divided into 5 animals/treatment group. A treatment solution (5 μl) was applied topically to the right flank organ once a day using a Pipetteman and a polypropylene disposable tip. Unless specified the left flank organ was not treated. The treatment solution contained either (a) ethanol alone (vehicle and control), (b) an androgen (T or 5α-DHT), (c) a fatty acid, or (d) a combination of an androgen and a fatty acid. The flank organ was wiped with an alcohol pad to remove residual compound before each treatment. […] The flank organs, both the treated and untreated sides, were evaluated with methods to be described below to determine the effect of these treatments of the growth of the pigmented macules and the sebaceous glands. The body weight of each animal was recorded before and after treatment.
The data are presented as mean ± standard deviation. […]

[5] = read-out: % Inhibition of [^3 H]4-MA binding, Table 1, 10 μM
[6] = read-out: % Inhibition of [^3 H]4-MA binding, Table 1, 40 μM
[7] = read-out: % Inhibition of [^3 H]4-MA binding, Table 1, 200 μM
[8] = read-out: % Inhibition of [^3 H]4-MA binding, Table 2, 10 μM
[9] = read-out: % Inhibition of [^3 H]4-MA binding, Table 2, 40 μM
[10] = read-out: % Inhibition of [^3 H]4-MA binding, Table 2, 200 μM

inhibition at 5 µM ([1]; Table 8, 5 μM): < 10% | inhibition at 10 µM ([1]; Table 8, 10 μM): < 10% | inhibition at 20 µM ([1]; Table 8, 20 μM): < 10% | inhibition at 40 µM ([1]; Table 8, 40 μM): < 10% | inhibition at 200 µM ([1]; Table 8, 200 μM): < 10%
Molecule: Oc1cc(O)c2c(c1)O[C@H](c1ccc(O)c(O)c1)[C@@H](O)C2 (relative stereo) [(±)Catechin]

inhibitory activity in [^3 H]4-MA binding assay [2]: slightly stimulatory
Molecule: CCCCCCCC/C=C\CCCCCCCC(=O)OCC(O)COC(=O)CCCCCCC/C=C\CCCCCCCC [3-diolein]

inhibition at 5 µM ([1]; Table 8, 5 μM): < 10% | inhibition at 10 µM ([1]; Table 8, 10 μM): < 10% | inhibition at 20 µM ([1]; Table 8, 20 μM): < 10% | inhibition at 40 µM ([1]; Table 8, 40 μM): < 10% | inhibition at 200 µM ([1]; Table 8, 200 μM): < 10%
Molecule: Oc1cc(O)c2c(c1)O[C@H](c1ccc(O)c(O)c1)[C@@H](O)C2 [(+)Catechin]

Molecule: Oc1cc(O)c2c(c1)O[C@@H](c1cc(O)c(O)c(O)c1)[C@H](O)C2 [(-)Gallocatechin]
inhibition at 5 µM [1]: < 10% | inhibition at 10 µM [1]: < 10% | inhibition at 20 µM [1]: < 10% | inhibition at 40 µM [1]: < 10% | inhibition at 200 µM [1]: < 10%

Molecule: CCCCC/C=C\C/C=C\C/C=C\C/C=C\CCCC(=O)O [Arachidonic acid]
IC50 [3]: 65 µM | inhibition at 10 µM [3, 5]: < 10% | inhibition at 40 µM [3, 6]: 30 ± 10% | inhibition at 200 µM [3, 7]: 88 ± 5% | inhibition at 10 µM [3, 8]: < 10% | inhibition at 40 µM [3, 9]: 30% | inhibition at 200 µM [3, 10]: 88% | Percent Inhibition [4]: 28% | Pigmented macule Right (+T) [4]: 35.7 ± 7.9 mm^2 | Pigmented macule Left [4]: 4.7 ± 1.6 mm^2 | inhibition of T-induced growth of pigmented macule [4]: Weak inhibitions

Molecule: O=C(O[C@H]1Cc2c(O)cc(O)cc2O[C@@H]1c1ccc(O)c(O)c1)c1cc(O)c(O)c(O)c1 [CG, (-)Catechin-3-gallate]
inhibition at 5 µM [1]: 12% | inhibition at 10 µM [1]: 31% | inhibition at 20 µM [1]: 53% | inhibition at 40 µM [1]: 73% | inhibition at 200 µM [1]: 91% | IC50 ([1]; type 1 5α-reductase of rat liver microsomes, read-out: IC50): 18 µM

Molecule: Cn1c(=O)c2c(ncn2C)n(C)c1=O [Caffeine, reference compound]
inhibitory activity [1]: not active

Molecule: CCCCC/C=C\C/C=C\CCCCCCCC(=O)O [Linoleic acid]
IC50 [3]: 117 µM | inhibition at 10 µM [3, 5]: < 10% | inhibition at 40 µM [3, 6]: 12 ± 3% | inhibition at 200 µM [3, 7]: 86 ± 4% | inhibition at 10 µM [3, 8]: < 10% | inhibition at 40 µM [3, 9]: 12% | inhibition at 200 µM [3, 10]: 86% | Percent Inhibition [4]: 52% | Pigmented macule Right (+T) [4]: 23.9 ± 5.0 mm^2 | Pigmented macule Left [4]: 5.4 ± 1.6 mm^2 | inhibition of T-induced growth of pigmented macule [4]: active

Molecule: CCCCCCCC/C=C\CCCCCCCC(=O)O [Oleic acid]
IC50 [3]: 128 µM | inhibition at 10 µM [3, 5]: < 10% | inhibition at 40 µM [3, 6]: 16 ± 6% | inhibition at 200 µM [3, 7]: 63 ± 12% | inhibition at 5 µM [3]: < 10% | inhibition at 10 µM [3, 8]: < 10% | inhibition at 40 µM [3, 9]: 16% | inhibition at 200 µM [3, 10]: 63% | Percent Inhibition [4]: 43% | Pigmented macule Right (+T) [4]: 28.1 ± 8.3 mm^2 | Pigmented macule Left [4]: 4.7 ± 0.5 mm^2 | inhibition of T-induced growth of pigmented macule [4]: active

Molecule: CCCCCCCCCCCCCCCC(=O)O [Palmitic acid]
inhibition at 200 µM [3, 7]: < 10% | inhibition at 200 µM [3, 10]: < 10% | Percent Inhibition [4]: 25% | Pigmented macule Right (+T) [4]: 37.2 ± 6.3 mm^2 | Pigmented macule Left [4]: 5.1 ± 2.9 mm^2 | inhibition of T-induced growth of pigmented macule [4]: Weak inhibitions

inhibitory activity in [^3 H]4-MA binding assay [2]: not active
Molecule: CCCCC[C@H](O)/C=C/[C@@H]1[C@H]2C/C(=C/CCCC(=O)O)O[C@H]2C[C@H]1O [Prostaglandin 12]

Molecule: O=c1c(O)c(-c2ccc(O)c(O)c2)oc2cc(O)cc(O)c12 [quercetin, reference compound]
inhibitory activity [1]: inactive

Molecule: CC/C=C\C/C=C\C/C=C\CCCCCCCC(=O)O [α-Linolenic acid, α-linolenic acid]
inhibition at 10 µM [3, 5]: 19 ± 3% | inhibition at 40 µM [3, 6]: 27 ± 7% | inhibition at 200 µM [3, 7]: 84 ± 6% | inhibition at 5 µM [3]: < 10% | inhibition at 10 µM [3, 8]: 19% | inhibition at 40 µM [3, 9]: 27% | inhibition at 200 µM [3, 10]: 84% | Percent Inhibition [4]: 44% | Pigmented macule Right (+T) [4]: 27.6 ± 8.2 mm^2 | Pigmented macule Left [4]: 4.1 ± 1.2 mm^2 | inhibition of T-induced growth of pigmented macule [4]: less active than γ-LA

inhibitory activity [1]: inactive
Molecule: naphthaflavone [reference compound]
